Common to all, as to format: in vivo, mouse
The test system of one data set is IFNγ, TNFα, IL17, IL6. Description: Cytokine ELISA. The following applies: SLE-prone mice. From the text:
ELISA assays were used to detect for the presence of various cytokines in mouse serum isolated from vehicle or drug-treated animals or from medium supernatant isolated from tissue cell cultures as described above. In addition, ELISA was also used to detect total IgG and dsDNA IgG from mouse serum and for the assay to detect urine albumin and creatinine levels. ELISA detection kits for mouse cytokines IL-6 and TNFα were purchased from eBioscience, mouse cytokines IL-17A, IFNγ, and human IFNγ were purchased from Biolegend, kits for the albumin and creatinine were purchased from Exocell, and kits for the serum IgG and anti-dsDNA IgG were purchased from Alpha Diagnostic (San Antonio, Tex.). ELISAs were all performed according to the manufacturer's instructions.
Cytokine analyses: In brief, capture antibodies for each cytokine were precoated on 96-well plates overnight at 4° C., then 100 μl of 5× diluted serum or 300× diluted supernatant medium was loaded on the precoated wells in duplicate and left overnight at 4° C. (with the exception of the human IFNγ assay isolated from supernatant medium, where the dilution used was 1:30). As per the protocol instructions, enzyme-antibody conjugate, TMB substrate and stopping buffer were added sequentially. The colorimetric analysis, as measured by optical density (OD) within each well, was determined using a microplate reader set at a wavelength of 450 nm. The cytokine concentrations were calculated and measured against a standard curve for each cytokine.
An ELISA was conducted to detect concentrations of IFNγ, TNFα, IL17, and IL6 in T cells derived from spleen.
Background: In an ELISA, binding on a coated surface is turned into a signal by an enzyme label.

For data set [1], the system named is circulating blood cells of SLE-prone mice. Description: Blood cell counts and circulating lymphocyte subsets. On the procedure: 50 μl of peripheral blood was collected from mice upon sacrifice and was mixed with 5 mM EDTA anticoagulant to be used for blood cell counts (Hemavet 850FS), to determine numbers of white blood cells (neutrophil, lymphocytes, monocytes, eosinophil and basophil), red blood cells and platelets. In addition, peripheral blood isolated from MRL/lpr mice either treated with vehicle (DMSO) or SHP2 inhibitor was used to count the percentage of lymphocyte subsets, including B cells, CD4+, CD8+ and double negative (DN) T cells through flow cytometry (see below).
To identify immune cell subsets, isolated cells from tissues were immunostained with mouse antibodies targeted against CD3E (145-2C11, BioLegend, San Diego, Calif.), CD4 (GK1.5, BioLegend), CD8 (53-6.7, eBioscience, San Diego, Calif.), CD45 (30-F11, eBioscience), CD 19 (6125, BioLegend), CD11b (M1170, BioLegend), TCRαβ (H57-597, BioLegend), CD44 (IM7, BioLegend), B220 (RA3-6B2, B.D. […], BD Biosciences, San Jose Calif.), CD138 (281-2, BioLegend), CD38 (CD28.2, BioLegend), Gr-1 (RB6.805, eBioscience), CD62L (DREG-56, BioLegend), and CD25 (PC61, BioLegend) for 30 minutes at 4° C. Samples were acquired on a LSR II flow cytometer (BD Biosciences) and the percentage of each sub-population of cells (B, T, monocytes, macrophage and neutrophils) was assessed by FlowJo [version 7.2.2 (Tree Star)]. Total cell numbers were counted using a hemocytometer. Absolute cell numbers for each sub-population were calculated based on the percentage of each population.

A further data set deals with SLE-prone MRL/lpr mice. Description: SLE disease progression in MRL/lpr mice (skin, spleen, kidney, thymus, proteinuria, histology, body weight). How it is done: Briefly, female MRL/MpJ-fas lpr (MRL/lpr), MRL/Mpj and C57BL/6J mice were purchased from the Jackson Laboratory (Bar Harbor, Me.). For experiments, mice within each group were ip injected with either vehicle (DMSO) or the SHP2 inhibitor (7.5 mg/kg/per day). Testing continued for a period of 6 weeks, starting at 11 weeks of age to 17 weeks. Body weight was measured daily and treatment dosage was adjusted accordingly. At the end of the treatment period, mice were sacrificed with CO2 exsanguination and SLE targeted organs were removed. For each mouse, spleen, kidney, and heart weight were calculated. In addition, total animal body weight and tibia length were measured. Peripheral blood/serum was also collected for use in the cytokine assays described below.
Harvested organs (kidney, spleen, and heart) to be used to assess morphometry and histochemistry were flushed with PBS, perfusion fixed in Bouin's reagent, and paraffin embedded. Sections (5 μm) were stained with Hematoxylin and Eosin (H&E), Periodic acid—Schiff stain (PAS), Masson-Trichrome, or reticulin staining at the Harvard Medical School Rodent Histopathology Core and scored using an unbiased approach, in which histology scores of 1 (normal) to 5 (most severe pathology) were designated to tissue sections which were only numerically labeled and in no particular order (by Dr. Roderick Bronson, director of the Rodent Histopathology Core, Harvard Medical School). Numerical sections were later decoded, marked for their designated score, and statistically analyzed. Images of the tissue sections were obtained and quantified on a Keyence BZ-9000 Microscope (Keyence Corporation, Itasca, Ill.).
To determine kidney function, urine was collected before mice were sacrificed. Albumin and creatinine in the urine were measured using colorimetric assays according to the manufacturer's instructions (Albuwell M; The creatinine companion, Exocell), as described below. The kidney function was calculated as ratio of albumin to creatinine levels.
Albumin and creatinine levels: For the albumin assay, collected mouse urine was diluted at 1:5200× and 50 μl was loaded onto an albumin precoated 96-well plate, followed by primary incubation, secondary incubation and colorimetric determination. For the creatinine assay, the urine was diluted 20× and loaded onto a 96-well plate, and picrate working solution and acid reagent were added sequentially according to protocol. Absorbance was assayed using a plate reader set at a wavelength of 495 nm.
To determine whether inhibition of SHP2 activity affected SLE disease progression, each of the SLE target tissues (i.e., skin, kidney, spleen) was tested in both treated and untreated SLE-prone mice. Particularly, tissues were tested as: WT treated with inhibitor, WT treated with DMSO (vehicle), MRL/mpJ treated with inhibitor, MRL/mpf treated with DMSO (vehicle), MRL/lpr treated with inhibitor, and MRL/lpr treated with DMSO (vehicle).

Where [2] appears, read: MRL/lpr mice, treatment for 6 weeks.

For the compound `Cn1c(-c2cccc(NC(=O)C(=O)Nc3ccc(-c4ccsc4)cc3)c2)c(I)c2cc(C(=O)O)c(O)cc21` [11a-1], in the data set on IFNγ, TNFα, IL17, IL6, the IFNγ result is reported as “significant decreases”, the IL6 result is recorded as “No effects”, the IL17 result is “No effects” and the TNFα result was “No effects”. In addition, in data set [1] (SLE mice), the “circulating CD4 and CD8 positive T cell populations” value is “not the CD4 and CD8 positive T cell populations”; the “circulating T cell leukocyte population” value is “significantly altered in SLE and inhibited”; the “circulating double negative T cells” value is recorded as “only the double negative cells”. For the same compound, in data set [1] (SLE mice vs vehicle), the circulating leukocytes entry is on record as “significantly reduced”; the “circulating neutrophils, monocytes, eosinophils, basophils” value is recorded as “not neutrophils, monocytes, eosinophils, or basophils”; the “red blood cells or platelets” value was “no effects observed”; the “white blood cell (WBC) population” value is reported as “specifically targets the white blood cell (WBC) population”. Further, the “cytotoxic effects during the treatment period” value with SLE-prone MRL/lpr mice (7.5 mg/kg/day) is “no obvious cytotoxic effects”. For the same compound, in the data set with SLE-prone MRL/lpr mice (MRL/lpr mice), the “SLE-related disease phenotype in the kidney (histology: glomerulonephritis, fibrosis, immune cell infiltration)” value is “prevented the development of this SLE-related disease phenotype in the kidney” and the “unbiased histopathological scoring of kidney” value was “quantifiably prevented the development of SLE-related disease phenotype”. Further, in the data set with SLE-prone MRL/lpr mice (setting [2]), the kidney size entry is on record as “normalized the kidney to a size”; the “splenomegaly (spleen size and weight)” value was “reduced splenomegaly”. Also, in the data set on SLE-prone MRL/lpr mice (SLE kidneys), the “PAS staining of kidney tissue” value is “decreased inflammatory infiltration in the tissue, smaller glomeruli, decreased fibrosis, and decreased numbers of mesangial cells surrounding the glomerulus”. In the data set with SLE-prone MRL/lpr mice (SLE mice vs vehicle-treated), the proteinuria result is “significant reduction in proteinuria”. In the data set on SLE-prone MRL/lpr mice (SLE-prone mice), the thymus size result is listed as “decreased thymus size”. The skin lesions/inflammation entry with SLE-prone MRL/lpr mice (SLE-prone mice, 7.5 mg/kg/day) was “reduced the skin lesions/inflammation”. Moreover, the “body weight during treatment period” value in the data set on SLE-prone MRL/lpr mice (mice, 7.5 mg/kg/day ip) is “no change in body weight”.
